# According to US9624233B2, “Compounds for treating pruritic conditions” (priority 2015, dated 2017):
# Where “and” joins values, the source holds several entries; their conditions need not be identical. Identical values can stand only once.
# Experiments:
# kainate = test: Abuse liability binding screen, kainate (agonist radioligand); settings: 2.5E−05M
# Description: (§1) Compound binding was calculated as a % inhibition of the binding of a radioactively labeled ligand specific for each target.
# κ (KOP) = κ (KOP) (Rattus norvegicus, UniProt P34975); test: Binding screen and IC50 determination, κ (KOP) (agonist radioligand)
# Chain of κ (KOP) (P34975 whole entry): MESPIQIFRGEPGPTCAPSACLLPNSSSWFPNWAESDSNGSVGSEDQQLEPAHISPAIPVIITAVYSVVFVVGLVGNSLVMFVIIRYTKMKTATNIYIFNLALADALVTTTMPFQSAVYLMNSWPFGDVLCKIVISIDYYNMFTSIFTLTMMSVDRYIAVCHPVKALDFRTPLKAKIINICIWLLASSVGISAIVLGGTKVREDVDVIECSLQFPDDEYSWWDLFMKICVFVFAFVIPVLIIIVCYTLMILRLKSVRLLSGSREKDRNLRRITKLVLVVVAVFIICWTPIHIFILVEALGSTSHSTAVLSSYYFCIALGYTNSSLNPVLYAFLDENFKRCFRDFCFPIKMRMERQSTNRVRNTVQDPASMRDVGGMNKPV
# Description: as §1
# μ (MOP) (h) = μ (MOP) (h) (Homo sapiens, UniProt P35372); test: biochemical; format: binding
# Chain of μ (MOP) (h) (P35372 whole entry): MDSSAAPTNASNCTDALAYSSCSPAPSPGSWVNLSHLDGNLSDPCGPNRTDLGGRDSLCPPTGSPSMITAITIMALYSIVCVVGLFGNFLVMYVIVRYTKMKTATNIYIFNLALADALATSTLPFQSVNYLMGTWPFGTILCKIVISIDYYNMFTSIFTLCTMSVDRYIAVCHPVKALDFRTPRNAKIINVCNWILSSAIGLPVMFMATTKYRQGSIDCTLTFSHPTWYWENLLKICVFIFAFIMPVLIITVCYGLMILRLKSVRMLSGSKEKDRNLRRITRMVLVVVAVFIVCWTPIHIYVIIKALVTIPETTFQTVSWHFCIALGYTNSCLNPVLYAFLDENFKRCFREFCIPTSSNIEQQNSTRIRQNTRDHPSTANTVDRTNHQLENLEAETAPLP
# Description: as §1
# [1] = target: T1, cloned human κ-opioid receptor expressed in CHO (Homo sapiens, UniProt P41145); test: cell-based; settings: opioid-agonist assay
# T1 sequence (P41145 whole entry): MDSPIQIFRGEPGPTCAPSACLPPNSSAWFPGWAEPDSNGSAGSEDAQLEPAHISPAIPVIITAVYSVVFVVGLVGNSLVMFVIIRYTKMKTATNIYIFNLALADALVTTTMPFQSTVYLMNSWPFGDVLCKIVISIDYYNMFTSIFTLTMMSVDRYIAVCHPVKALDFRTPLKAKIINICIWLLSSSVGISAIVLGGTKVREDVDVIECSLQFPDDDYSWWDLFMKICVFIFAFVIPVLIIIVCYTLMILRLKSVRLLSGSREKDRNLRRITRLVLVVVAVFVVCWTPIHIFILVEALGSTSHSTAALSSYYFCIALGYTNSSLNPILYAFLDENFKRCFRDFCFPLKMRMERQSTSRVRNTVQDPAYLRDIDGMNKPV
# [2] = target: T1, cloned human κ-opioid receptor expressed in CHO; test: biochemical; format: binding
# PCP = test: Abuse liability binding screen, PCP (antagonist radioligand); settings: 2.5E−05M
# Description: as §1
# OX2 (h) = target: T2, OX2 (h) (Homo sapiens, UniProt O43614); test: Abuse liability binding screen, OX2 (h) (agonist radioligand)
# T2 sequence (O43614 1-444): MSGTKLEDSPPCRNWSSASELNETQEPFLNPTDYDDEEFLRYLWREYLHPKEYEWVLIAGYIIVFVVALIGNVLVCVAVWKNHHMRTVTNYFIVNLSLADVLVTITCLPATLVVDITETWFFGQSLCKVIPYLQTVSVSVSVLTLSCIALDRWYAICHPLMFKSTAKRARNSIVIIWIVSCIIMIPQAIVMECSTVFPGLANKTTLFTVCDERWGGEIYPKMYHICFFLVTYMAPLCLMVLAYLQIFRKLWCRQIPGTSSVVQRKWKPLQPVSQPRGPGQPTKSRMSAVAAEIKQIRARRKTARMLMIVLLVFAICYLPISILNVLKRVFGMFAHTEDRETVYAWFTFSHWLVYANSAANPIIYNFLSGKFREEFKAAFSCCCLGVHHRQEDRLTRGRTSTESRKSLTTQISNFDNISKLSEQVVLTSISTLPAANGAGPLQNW
# Description: […]. The abuse liability screen included 44 targets (receptors, transporters, on gated-channel systems) related to the dopamine, norepinephrine, serotonin, gamma-aminobutyric acid (GABA), acetylcholine, N-methyl-D-aspartate (NMDA) cannabinoid and opioid neurotransmitter systems as recommended in FDA Draft guidance on Assessment of Abuse Potential of Drugs, January 2010.
# as §1
# Results showing an inhibition or stimulation higher than 50% are considered to represent significant effects of the test compounds.
# NMDA = test: Abuse liability binding screen, NMDA (antagonist radioligand); settings: 2.5E−05M
# Description: as §1
# [3] = test system: glycine (strychnine−insensitive); format: binding; settings: 2.5E−05M
# Description: as §1
# [4] = target: T3, cloned human δ-opioid receptor expressed in CHO (Homo sapiens, UniProt P41143); test: Opioid receptor binding study, CHO-δ, [3H]DPDPE; settings: @ 25,000 nM, [3H]DADLE, read-out: % inhibition printed in the IC50 column
# T3 construct: expressed in transfected cells; host or cells: CHO cells
# T3 sequence (P41143 whole entry): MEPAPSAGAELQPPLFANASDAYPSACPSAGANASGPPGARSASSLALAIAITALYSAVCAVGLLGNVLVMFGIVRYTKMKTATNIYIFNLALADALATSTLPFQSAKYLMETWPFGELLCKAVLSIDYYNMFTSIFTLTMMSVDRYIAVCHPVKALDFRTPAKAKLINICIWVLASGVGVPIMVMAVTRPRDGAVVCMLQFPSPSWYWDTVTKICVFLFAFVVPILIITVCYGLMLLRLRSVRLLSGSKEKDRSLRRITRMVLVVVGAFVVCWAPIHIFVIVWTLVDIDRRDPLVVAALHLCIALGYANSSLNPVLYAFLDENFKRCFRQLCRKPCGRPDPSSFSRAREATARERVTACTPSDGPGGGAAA
# [5] = test system: Cl^− channel (GABA-gated); test: Abuse liability binding screen, Cl− channel (GABA-gated) (antagonist radioligand); settings: 2.5E−05M
# Description: as §1
# GABA transporter = test: Abuse liability binding screen, GABA transporter (antagonist radioligand); settings: 2.5E−05M
# Description: as §1
# ER (non-selective) (h) = test: Abuse liability binding screen, ER (non-selective) (h) (agonist radioligand); design: species or system human; settings: 2.5E−05M
# Description: as §1
# [6] = Plasma Cmax in HD patients; settings: human
# BZD (central) = test: Abuse liability binding screen, BZD (central) (agonist radioligand); settings: 2.5E−05M
# Description: as §1
# [7] = target: T4, μ-opioid receptor expressed in HEK cells (Mus musculus, UniProt P42866); test: Opioid cell functional assay, opioid-agonist assay, HEK-μ; format: cell-based
# T4 construct: expressed in transfected cells; host or cells: HEK (human embryonic kidney) cells
# T4 sequence (P42866 whole entry): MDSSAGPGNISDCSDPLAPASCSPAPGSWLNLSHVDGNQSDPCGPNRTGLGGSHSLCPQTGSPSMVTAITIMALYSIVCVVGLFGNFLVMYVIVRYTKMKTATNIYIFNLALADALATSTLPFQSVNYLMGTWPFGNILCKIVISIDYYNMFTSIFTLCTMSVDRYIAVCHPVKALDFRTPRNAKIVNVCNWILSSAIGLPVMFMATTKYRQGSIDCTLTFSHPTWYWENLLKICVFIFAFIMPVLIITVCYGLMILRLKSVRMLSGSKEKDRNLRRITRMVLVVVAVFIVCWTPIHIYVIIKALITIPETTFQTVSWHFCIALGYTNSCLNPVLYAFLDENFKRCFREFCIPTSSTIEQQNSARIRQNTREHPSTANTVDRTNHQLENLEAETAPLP
# [8] = target: T1, cloned human κ-opioid receptor expressed in CHO; test: cell-based; design: Max Inh (%): dose or concentration left out as unconfirmed; settings: opioid-antagonist assay
# [9] = target: T4, μ-opioid receptor expressed in HEK cells; test: Opioid cell functional assay, opioid-antagonist assay, HEK-μ (CTOP); format: cell-based
# [10] = target: T4, μ-opioid receptor expressed in HEK cells; test: Opioid receptor binding study, HEK-μ, [3H]DAMGO
# Na^+ channel (site 2) = test: Abuse liability binding screen, Na+ channel (site 2) (antagonist radioligand); settings: 2.5E−05M
# Description: as §1
# [11] = target: T3, cloned human δ-opioid receptor expressed in CHO; test: Opioid cell functional assay, opioid-agonist assay, CHO-δ; format: cell-based; settings: cell functional assays
# AMPA = test: Abuse liability binding screen, AMPA (antagonist radioligand); settings: 2.5E−05M
# Description: as §1
# [12] = against a μ-opioid receptor agonist ligand
compound,measurement,setting,value
O=C(O)CC(CO)CN1CC[C@]23c4c5ccc(O)c4O[C@H]2[C@@H](O)CC[C@@]3(O)[C@H]1C5 (some centres unmarked) [Compound 1],% Inhibition of Control Specific Binding 1st,kainate,6.3%
same,% Inhibition of Control Specific Binding 2nd,kainate,34.1%
same,% Inhibition of Control Specific Binding Mean,kainate,20.2%
same,IC50,κ (KOP),74 µM
same,Ki,κ (KOP),49 µM
same,nH,κ (KOP); IC50 determination,0.7
same,% Inhibition of Control Specific Binding Mean,μ (MOP) (h); 2.5E−05M,92.0%
same,nH,μ (MOP) (h); IC50 determination,0.6
same,IC50,μ (MOP) (h); [12],3.2 µM
same,Ki,μ (MOP) (h); [12],1.3 µM
same,EC50,[1],> 100 µM
same,Max Inh (%),[1],14%
same,IC50,"[2]; CHO-κ, [3H]U 69593",74 µM
same,Ki,"[2]; CHO-κ, [3H]U 69593",49 µM
same,NAL Selectivity relative to Comp1 / M5 (Compound 1 or M5 Ki/NAL Ki),[2]; k-receptor,"13,611"
same,% Inhibition of Control Specific Binding 1st,PCP,−12.2%
same,% Inhibition of Control Specific Binding 2nd,PCP,−1.4%
same,% Inhibition of Control Specific Binding Mean,PCP,−6.8%
same,% Inhibition of Control Specific Binding 1st,OX2 (h); 2.5E−05M,−9.6%
same,% Inhibition of Control Specific Binding 2nd,OX2 (h); 2.5E−05M,−11.9%
same,% Inhibition of Control Specific Binding Mean,OX2 (h); 2.5E−05M,−10.7%
same,% Inhibition of Control Specific Binding 1st,NMDA,−12.5%
same,% Inhibition of Control Specific Binding 2nd,NMDA,−9.8%
same,% Inhibition of Control Specific Binding Mean,NMDA,−11.1%
same,% Inhibition of Control Specific Binding 1st,[3],−13.5%
same,% Inhibition of Control Specific Binding 2nd,[3],−9.7%
same,% Inhibition of Control Specific Binding Mean,[3],−11.6%
same,inhibition at 25 µM,[4],11%
same,% Inhibition of Control Specific Binding 1st,[5],1.7%
same,% Inhibition of Control Specific Binding 2nd,[5],1.0%
same,% Inhibition of Control Specific Binding Mean,[5],1.3%
same,% Inhibition of Control Specific Binding 1st,GABA transporter,7.4%
same,% Inhibition of Control Specific Binding 2nd,GABA transporter,−6.2%
same,% Inhibition of Control Specific Binding Mean,GABA transporter,0.6%
same,% Inhibition of Control Specific Binding 1st,ER (non-selective) (h),−8.0%
same,% Inhibition of Control Specific Binding 2nd,ER (non-selective) (h),4.3%
same,% Inhibition of Control Specific Binding Mean,ER (non-selective) (h),−1.9%
same,Cmax,[6],~16 µM
same,% Inhibition of Control Specific Binding 1st,BZD (central),3.4%
same,% Inhibition of Control Specific Binding 2nd,BZD (central),3.0%
same,% Inhibition of Control Specific Binding Mean,BZD (central),3.2%
same,EC50,"[7]; EC50 (nM), opioid-agonist assay, HEK-μ",78000 nM and ~78000 nM
same,EC50,"[7]; EC50, μ-opioid receptor partial agonist/antagonist",~173000 nM
same,μ-agonist EC50 relative to Cmax in HD patients,[7]; EC50 exceeding Cmax,~4 fold
same,Max Inh (%),"[7]; opioid-agonist assay, HEK-μ",61%
same,Max Inh (%),[8],−10% @
same,IC50,"[8]; Nor-BNI, read-out: EC50 (nM) column (IC50 per footnote)",> 30000 nM
same,IC50,[9],> 30 µM
same,inhibition at 30 µM,"[9]; HEK293, read-out: Max Inh (%)",-1%
same,IC50,[10],3.2 µM
same,Ki,[10],1.3 µM
same,NAL Selectivity relative to Comp1 / M5 (Compound 1 or M5 Ki/NAL Ki),[10]; μ-receptor,929
same,% Inhibition of Control Specific Binding 1st,Na^+ channel (site 2),−4.4%
same,% Inhibition of Control Specific Binding 2nd,Na^+ channel (site 2),21.0%
same,% Inhibition of Control Specific Binding Mean,Na^+ channel (site 2),8.3%
same,activity at the delta receptor,[11],no activity
same,% Inhibition of Control Specific Binding 1st,AMPA,0.9%
same,% Inhibition of Control Specific Binding 2nd,AMPA,−3.7%
same,% Inhibition of Control Specific Binding Mean,AMPA,−1.4%
"Oc1ccc2c3c1O[C@H]1[C@@H](O)CC[C@@]4(O)[C@@H](C2)N(CC2CCC2)CC[C@]314 [Nalbuphine, nalbuphine]",% Inhibition of Control Specific Binding 1st,OX2 (h); 1.0E−05M,−11.3%
same,% Inhibition of Control Specific Binding 2nd,OX2 (h); 1.0E−05M,−7.4%
same,% Inhibition of Control Specific Binding Mean,OX2 (h); 1.0E−05M,−9.4%
